Source: ChEMBL document CHEMBL5512617, “Tackling Influenza A virus by M2 ion channel blockers: Latest progress and limitations” (Eur J Med Chem, 2024)
pEC50, pIC50: −log10 of the molar value. Values after ≈ are worked out from the molar mass of the structure shown.

Experiments:
[1] = Cytotoxicity against MDCK cells incubated for 72 hrs by CCK-8 assay; format: toxicity, cell-based, Canis lupus familiaris; details: dog
[2] = molecular target: T1, Matrix protein 2 (Influenza A virus, UniProt P06821); format: cell-based, A/Udorn/72, Oocyte
[3] = molecular target: T1, Matrix protein 2; format: cell-based, Oocyte
[4] = system: Influenza A virus; format: functional, organism-based; details: A/WSN/33 (H1N1), MDCK, 48 h
[5] = Cytotoxicity against MDCK cells incubated for 24 hrs by neutral red uptake assay; format: toxicity, cell-based, Canis lupus familiaris; details: dog
[6] = system: Influenza A virus; format: functional, organism-based; details: A/WSN/33 (H1N1), MDCK, 48 h; remark: listed apart in the source
[7] = system: Influenza A virus; format: functional, organism-based; details: H5N1 (A/chicken/Hubei/327/2004), MDCK
[8] = system: Influenza A virus; assay: Antiviral activity against influenza A virus A/hanfang/359/95 (H3N2); format: functional, organism-based
[9] = system: Influenza A virus; format: functional, organism-based; details: H1N1 (A/Hongkong/68), MDCK, 24 h
[10] = Cytotoxicity against MDCK cells; format: toxicity, cell-based, Canis lupus familiaris; details: dog
[11] = Selectivity index, ratio of CC50 for MDCK cells to IC50 for influenza A virus A/hanfang/359/95 (H3N2); format: toxicity; details: dog, read-out: Ratio CC50/IC50
[12] = system: Influenza A virus; format: functional, organism-based; details: H1N1 (A/California/7/2009), MDCK, 72 h
[13] = Cytotoxicity against MDCK cells measured after 3 days by MTT assay; format: toxicity, cell-based, Canis lupus familiaris; details: dog, time 3 day
[14] = system: Influenza A virus; format: functional, organism-based; details: H3N2 (A/Perth/10/2007), MDCK, 72 h

T1 sequence (P06821 whole entry): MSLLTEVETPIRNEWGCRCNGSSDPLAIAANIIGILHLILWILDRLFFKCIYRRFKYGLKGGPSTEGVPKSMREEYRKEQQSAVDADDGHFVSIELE

For `C[C@H]1[C@H](N)C[C@@H]2C[C@H]1C2(C)C`, the CC50 at 72 h [1] was over 300 µM.
Work on `NC1CCC2(CCCCC2)CC1` [listing 1 of 2 here] yielded a pIC50 [2] of 4.90.
Molecule `NC1CCC2(CCCCC2)CC1` [listing 2 of 2 here] has a pIC50 [3] of 4.90.
With `C1CCC2(CC1)CCNCC2` the pIC50 [2] was 6.05.
With `NC1CC[Si]2(CCCC2)CC1` the pIC50 [3] was 5.11.
`NC1CC[Si]2(CCCCC2)CC1` showed a pIC50 [3] of 4.86.
For `NC1CCC2(CCCC2)CC1` [listing 1 of 2 here], the pIC50 [3] was 5.48.
With `NC1CCC2(CCCC2)CC1` [listing 2 of 2 here] the pIC50 [2] was 5.48.
`CC1(C)[C@@H]2CC[C@@]1(C)[C@@H](CN)C2` gave a CC50 at 72 h [1] of over 300 µM.
For `c1c(CNC23CC4CC(CC(C4)C2)C3)noc1C1CC1`, the pEC50 [4] was 6.31.
With `NC1CCC2(CC1)C1CC3CC(C1)CC2C3` (centres undefined) the CC50 at 24 h [5] was 27.6 µM.
For `OC12CC3CC(C1)CC(NCc1cnc(N4CCCCC4)nc1)(C3)C2`, the pEC50 [6] was 5.37.
`OC12CC3CC(C1)CC(NCc1ccc(N4CCCCCC4)cn1)(C3)C2` showed a pEC50 [6] of 5.57.
With `c1nc(N2CCCCCC2)ncc1CNC12CC3CC(CC(C3)C1)C2` the pEC50 [6] was 6.15.
In the case of `[C-]#[N+]C1C2CC3CC(C2)CC1C3` (centres undefined), the pEC50 [7] was 5.01.
Molecule `O=C(CCC[C@@H]1[C@H]2CCCN3CCC[C@@H](CN1S(=O)(=O)c1ccc(C(F)(F)F)cc1)[C@@H]23)OCCC12CC3CC(CC(C3)C1)C2` has a pIC50 [8] of 4.77.
In the case of `NC1CCCC2(CCCCCC2)CC1` (centres undefined), the pIC50 [2] was 5.06.
Work on `O=C(CCC[C@@H]1[C@H]2CCCN3CCC[C@@H](CN1S(=O)(=O)c1ccccc1)[C@@H]23)OCC12CC3CC(CC(C3)C1)C2` yielded a pIC50 [8] of 4.79.
In the case of `CC(NC(=O)c1csc(CN)n1)C12CC3CC(CC(C3)C1)C2` (centres undefined), the IC50 [9] was 0.11 µg/mL (≈ 0.344 µM) and the CC50 [10] was 50 µg/mL.
`O=C(CCC[C@@H]1[C@H]2CCCN3CCC[C@@H](CN1S(=O)(=O)c1cccc(C(F)(F)F)c1)[C@@H]23)OCC12CC3CC(CC(O)(C3)C1)C2` gave a pIC50 [8] of 4.95.
For `O=C(CCC[C@@H]1[C@H]2CCCN3CCC[C@@H](CN1S(=O)(=O)c1ccc(C(F)(F)F)cc1)[C@@H]23)OCC12CC3CC(CC(C3)C1)C2`, the pIC50 [8] was 4.68.
For `Brc1cc(CNC23CC4CC(CC(C4)C2)C3)cs1`, the pEC50 [4] was 5.66.
Work on `NCC1CCC2(CCCCC2)CC1` yielded a pIC50 [2] of 5.05.
`[C-]#[N+]c1c(C)cc(C(C)(C)C)cc1C` showed a pEC50 [7] of 6.62.
With `CC(N)[C@H]1C[C@H]2CC[C@]1(C)C2(C)C` (some centres undefined) the CC50 at 72 h [1] was over 300 µM.
For `O=C(CCC[C@@H]1[C@H]2CCCN3CCC[C@@H](CN1S(=O)(=O)c1ccc(C(F)(F)F)cc1)[C@@H]23)OCC12CC3CC(CC(O)(C3)C1)C2`, the pIC50 [8] was 5.02.
For `CC(N)C1CCC2(CCCCC2)CC1` (centres undefined), the pIC50 [2] was 4.80.
With `Cc1ccc(S(=O)(=O)N2C[C@@H]3CCCN4CCC[C@@H]([C@H]34)[C@H]2CCCC(=O)OCC23CC4CC(CC(C4)C2)C3)cc1` the pIC50 [8] was 4.79.
With `c1nc(N2CCCCC2)ncc1CNC12CC3CC(CC(C3)C1)C2` the pEC50 [6] was 5.82.
In the case of `C[Si]1(C)CCCNCC1`, the pIC50 [3] was 4.71.
`CC1(C)CCC(N)CC1` showed a pIC50 [3] of 5.62.
`C[Si]1(C)CCC(N)CC1` showed a pIC50 [3] of 5.59.
Work on `[C-]#[N+][C@@H]1C[C@@H]2C[C@H]([C@H]1C)C2(C)C` yielded a pEC50 [7] of 5.13.
`c1nc(N2CCCCCC2)cnc1CNC12CC3CC(CC(C3)C1)C2` gave a pEC50 [6] of 5.72.
Molecule `O=C(CCC[C@@H]1[C@H]2CCCN3CCC[C@@H](CN1S(=O)(=O)c1cccc(C(F)(F)F)c1)[C@@H]23)OCC12CC3CC(CC(C3)C1)C2` has a selectivity ratio [11] of 9.31, a pIC50 [8] of 5.29 and a CC50 [10] of 47.8 µM.
In the case of `[C-]#[N+]C(C)C12CC3CC(CC(C3)C1)C2` (centres undefined), the pEC50 [7] was 6.62.
With `CC1(C)CCCNCC1` the pIC50 [3] was 4.58.
`NC1CCCC2(CCCCC2)CC1` (centres undefined) gave a pIC50 [2] of 4.88.
In the case of `NC1CCC2(CCCCCC2)CC1`, the pIC50 [2] was 4.89.
In the case of `[C-]#[N+]C(C)(C)CC(C)(C)C`, the pEC50 [7] was 5.41.
In the case of `C[Si]1(C)CCC(CN)CC1`, the pIC50 [3] was 5.24.
Molecule `OC12CC3CC(C1)CC(NCc1ccc(N4CCCCCCC4)cn1)(C3)C2` has a pEC50 [6] of 5.10.
Molecule `[C-]#[N+]C12CC3CC(CC(C3)C1)C2` has a pEC50 [7] of 6.31.
Molecule `CC[C@@H](C(=O)[C@@H](C)[C@@H](O)[C@H](C)[C@@H]1O[C@@H]([C@@H](CC)C(=O)O)CC[C@@H]1C)[C@H]1O[C@]2(C=C[C@@H](O)[C@]3(CC[C@@](C)([C@H]4CC[C@](O)(CC)[C@H](C)O4)O3)O2)[C@H](C)C[C@@H]1C` [SALINOMYCIN] has a pEC50 [12] of 5.72, a CC50 at 72 h [13] of 35.6 µM and a pEC50 [14] of 5.59.
